The values below are quoted from earlier work in patent US20220160664A1, “TAZ ACTIVATORS AND WNT AGONISTS FOR TREATING EAR DISORDERS” (Frequency Therapeutics, Inc., priority 2019, published 2022).

Structures are written as SMILES.

The series addresses T1, KDM1b (Homo sapiens, UniProt Q8NB78).
T1 sequence (Q8NB78 1-822): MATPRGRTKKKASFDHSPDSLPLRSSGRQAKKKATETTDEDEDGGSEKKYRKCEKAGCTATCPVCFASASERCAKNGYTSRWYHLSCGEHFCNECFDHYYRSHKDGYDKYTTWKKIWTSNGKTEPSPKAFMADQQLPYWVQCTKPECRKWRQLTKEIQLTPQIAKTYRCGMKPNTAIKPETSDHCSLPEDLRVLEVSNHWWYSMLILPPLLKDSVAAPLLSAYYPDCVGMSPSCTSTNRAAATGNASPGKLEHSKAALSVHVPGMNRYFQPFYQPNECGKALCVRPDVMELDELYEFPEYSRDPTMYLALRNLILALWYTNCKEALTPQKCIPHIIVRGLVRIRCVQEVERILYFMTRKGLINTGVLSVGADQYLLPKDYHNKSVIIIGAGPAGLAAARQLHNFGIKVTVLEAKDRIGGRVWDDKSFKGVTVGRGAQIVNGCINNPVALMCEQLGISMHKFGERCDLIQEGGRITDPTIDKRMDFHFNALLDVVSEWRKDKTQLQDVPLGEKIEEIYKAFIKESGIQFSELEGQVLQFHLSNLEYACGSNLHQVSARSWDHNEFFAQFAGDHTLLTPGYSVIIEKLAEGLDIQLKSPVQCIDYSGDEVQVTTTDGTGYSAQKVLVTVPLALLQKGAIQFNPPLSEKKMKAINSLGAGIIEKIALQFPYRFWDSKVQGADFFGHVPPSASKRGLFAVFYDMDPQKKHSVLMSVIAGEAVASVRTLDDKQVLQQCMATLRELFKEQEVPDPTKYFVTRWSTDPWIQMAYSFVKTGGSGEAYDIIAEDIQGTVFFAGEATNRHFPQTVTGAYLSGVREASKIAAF
Particulars: Table 9; read-out: Select KDM1b; cited from earlier work.

Turning to `O=C(O)c1ccc(CN2CCC(CN[C@@H]3C[C@H]3c3ccccc3)CC2)cc1` [GSK-2879552], the IC50 was 20 µM.
